As a reminder, the Hill slope is a measure of the steepness of the concentration-response curve. For orientation: IC50 means the concentration that gives 50% inhibition. The term Kd denotes the equilibrium constant for the complex coming apart. Usually kon stands for the second-order rate constant of association. Low readings indicate slow association, high ones fast association. Broadly, the EC50 is the concentration giving half of the maximal effect.

In data set [1] the target is T1, SARS-CoV-2 3CL^pro (Severe acute respiratory syndrome coronavirus 2, UniProt P0DTD1). Put plainly: biochemical. It is filed as biochemical. Particulars: for IC50: FRET dose-response, 100 nM 3CL^pro pre-incubated 30 min at 30 °C, 10 µM substrate, read-out: IC50 against SARS-CoV-2 3CL^pro.
Another data set concerns the target Cathepsin L (Homo sapiens, UniProt P07711). Put plainly: Counter screen against Cathepsin L. It is filed as biochemical. The note with it: dose-response, Figure S1. On the technique in general: Counterscreens check selectivity or assay interference.
Data set [2] concerns the target T1, SARS-CoV-2 3CL^pro. Briefly: Bio-layer interferometry (BLI) kinetic binding assay. Particulars: for Binding to SARS-CoV-2 3CL^pro: 6.25 to 100 or 200 µM; for koff: read-out: Kdis.
Data set [3] addresses Norovirus RNA-dependent RNA polymerase (RdRp) (Norovirus, UniProt Q83883). Briefly: BLI binding assay, non-specific binding control. Particulars: Figure S2.
The target of data set [4] is T1, SARS-CoV-2 3CL^pro. Put plainly: cell-based.
The nature of another data set: in vitro. The note with it: human.
The test system of the next data set is rats. The note with it: taken orally, ref [7],[34]; cited from earlier work.
Setting [5] is: single concentration of 20 μM, normalized to DMSO control.

Like-named read-outs stand apart in the source and are kept apart here.

Chain of Norovirus RNA-dependent RNA polymerase (RdRp) (Q83883 1282-1789): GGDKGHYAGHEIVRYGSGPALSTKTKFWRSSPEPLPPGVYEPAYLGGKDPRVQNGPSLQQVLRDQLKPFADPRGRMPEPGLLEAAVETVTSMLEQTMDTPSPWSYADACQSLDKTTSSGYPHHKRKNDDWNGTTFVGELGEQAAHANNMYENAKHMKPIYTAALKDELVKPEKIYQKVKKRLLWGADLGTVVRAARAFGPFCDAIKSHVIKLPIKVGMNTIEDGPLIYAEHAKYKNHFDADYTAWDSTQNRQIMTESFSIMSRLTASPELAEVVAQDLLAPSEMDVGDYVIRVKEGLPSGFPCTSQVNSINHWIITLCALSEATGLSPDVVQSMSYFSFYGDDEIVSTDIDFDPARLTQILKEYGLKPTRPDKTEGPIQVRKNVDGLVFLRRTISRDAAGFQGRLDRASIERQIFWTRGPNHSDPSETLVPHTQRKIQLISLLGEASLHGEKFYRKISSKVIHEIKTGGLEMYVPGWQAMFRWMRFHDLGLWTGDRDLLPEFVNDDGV
Chain of Cathepsin L (P07711 114-333): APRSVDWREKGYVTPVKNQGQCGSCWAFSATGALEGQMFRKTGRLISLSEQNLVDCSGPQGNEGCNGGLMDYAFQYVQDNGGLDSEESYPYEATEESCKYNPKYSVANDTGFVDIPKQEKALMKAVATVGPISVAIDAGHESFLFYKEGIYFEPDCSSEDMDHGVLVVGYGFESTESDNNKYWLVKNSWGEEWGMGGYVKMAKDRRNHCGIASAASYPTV

As to `COc1ccc(S(=O)(=O)N(CC(C)O)CC(O)C(Cc2ccccc2)NC(=O)c2ccc(O)c(O)c2)cc1` (stereo not drawn) [29#], the Hill slope at SARS-CoV-2 3CL^pro [1] (FRET dose-response curve) came out at 1.78±0.32. For the same compound, the IC50 at SARS-CoV-2 3CL^pro [1] turned out to be 6.3 µM. Moreover, on SARS-CoV-2 3CL^pro [1] (setting [5]), the “Inhibition of 3CL^pro activity in primary screening” value (“Inhibition of 3CL^pro activity” for short) is “significant inhibition”. The “Inhibitory effect against Cathepsin L” value on Cathepsin L is “very limited inhibitory effect”. Also, the “Binding to SARS-CoV-2 3CL^pro” value on SARS-CoV-2 3CL^pro [2] (BLI) is listed as “dose-dependent manner”. Besides, on SARS-CoV-2 3CL^pro [2] (ForteBio Octet System), the Kd was 52.7 µM, the kon is 374 M⁻¹ s⁻¹ and the koff is 0.0197 s⁻¹. For the same compound, in data set [3], the “KD with Norovirus RdRp” value is reported as “either a large KD value or a not-detected KD value”. For the same compound, the EC50 on SARS-CoV-2 3CL^pro [4] was 8.9 µM. The same compound gave a CC50 in “in vitro” of 24.8 µM.

Regarding `O=c1c2ccccc2[se]n1-c1ccccc1` [Ebselen, ebselen, reference compound], at SARS-CoV-2 3CL^pro [1], the Hill slope amounted to 1.91±0.22 and the “Inhibition of 3CL^pro activity” value is “strongly inhibit”. Also, in the data set with rats, the median lethal dose is over 4600 mg/kg.

`COc1ccc(S(=O)(=O)N(CC(C)O)CC(O)C(Cc2ccccc2)NC(=O)C2(O)CC(O)C(O)C(OC(=O)C=Cc3ccc(O)c(O)c3)C2)cc1` (stereo not drawn) [50#] registered a Hill slope at SARS-CoV-2 3CL^pro [1] (FRET dose-response curve) of 1.93±0.30. Besides, on SARS-CoV-2 3CL^pro [1], the IC50 worked out at 3.5 µM. Further, the “Inhibition of 3CL^pro activity” value at SARS-CoV-2 3CL^pro [1] (setting [5]) is reported as “significant inhibition”. For the same compound, the “Inhibitory effect against Cathepsin L” value at Cathepsin L is on record as “very limited inhibitory effect”. In addition, on SARS-CoV-2 3CL^pro [2] (BLI), the dissociation constant (Kd) worked out at 62 µM and the “Binding to SARS-CoV-2 3CL^pro” value is listed as “dose-dependent manner”. At SARS-CoV-2 3CL^pro [2] (ForteBio Octet System), the Kd is 62.1 µM, the kon came out at 455 M⁻¹ s⁻¹ and the koff is 0.0282 s⁻¹. In data set [3], the “KD with Norovirus RdRp” value was “either a large KD value or a not-detected KD value”. At SARS-CoV-2 3CL^pro [4], this compound showed an EC50 of 13.5 µM. This compound also registered a CC50 in “in vitro” of 49 µM.

With `CC(C)CN(C[C@@H](O)[C@H](Cc1ccccc1)NC(=O)O[C@H]1CO[C@H]2OCC[C@H]21)S(=O)(=O)c1ccc(N)cc1` [Darunavir], on SARS-CoV-2 3CL^pro [1] (setting [5]), the “Inhibition of 3CL^pro activity” value is reported as “no inhibitory activity”.

The values above are taken from PMC9781983, “Identification of Darunavir Derivatives for Inhibition of SARS-CoV-2 3CL^pro” (International Journal of Molecular Sciences, 2022).
